Target: T1, FPR1 (Homo sapiens, UniProt P21462)
T1 sequence (P21462 1-350): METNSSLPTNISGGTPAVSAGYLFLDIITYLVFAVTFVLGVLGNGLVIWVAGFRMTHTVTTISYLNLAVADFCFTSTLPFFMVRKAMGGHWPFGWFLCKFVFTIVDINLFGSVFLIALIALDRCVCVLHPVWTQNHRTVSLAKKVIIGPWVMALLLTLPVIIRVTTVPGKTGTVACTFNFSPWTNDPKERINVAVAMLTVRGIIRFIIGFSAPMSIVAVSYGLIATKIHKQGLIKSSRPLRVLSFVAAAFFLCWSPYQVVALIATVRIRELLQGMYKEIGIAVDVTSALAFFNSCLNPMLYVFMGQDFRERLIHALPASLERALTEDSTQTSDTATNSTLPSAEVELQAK
Experiment: human neutrophil NADPH-oxidase (superoxide) and Ca2+ assays with FPR1/FPR2 antagonists and cross-desensitization; weak β-arrestin recruitment in FPR1 CHO cells
Format: cell-based

Substance: RE-04-001
- EC50: ~1 nM

Reference: article PMC8246850, “Functional selective FPR1 signaling in favor of an activation of the neutrophil superoxide generating NOX2 complex” (Journal of Leukocyte Biology, 2020)
